Source: patent publication US20180333399A1, “METHOD OF IMPROVING LIVER FUNCTION” (NAIA METABOLIC, INC., priority 2012, published 2018)
Marks after values point to notes of the source that are not given here.

Key:
type 2 diabetes patients = experiment: 24 week randomised, placebo-controlled double-blind clinical trial: blood ALT levels; type: in vivo, human; conditions: for ΔALT Week 12, Mean ± SD / ΔALT Week 12, Median (range): change from baseline (Day 0) to Week 12; for ΔALT Week 12, Mean ± SD / ΔALT Week 12, Median (range) / ΔALT Week 24, Mean ± SD / ΔALT Week 24, Median (range): 40 mg b.i.d.; for ΔALT Week 24, Mean ± SD / ΔALT Week 24, Median (range): change from baseline (Day 0) to Week 24; for ΔALT Week 12, MTZ-Placebo / ΔALT Week 24, MTZ-Placebo: difference of mean ΔALT versus matching placebo group
Text: The primary efficacy endpoint for the clinical trial was a reduction in HbA1c (ΔHbA1c) from baseline with methazolamide, relative to placebo, after 24 weeks of treatment. The primary safety measurement was the effect of methazolamide, compared to placebo, on venous blood gas parameters; a measure of acidosis. The clinical trial initially enrolled type 2 diabetes patients who were not treated with any anti-diabetic agent prior to entry into the trial. […] The metformin dose was not altered throughout the trial. Participant baseline demographic data are provided in Table 1-1, Participants randomized into the clinical trial were administered either daily doses of methazolamide (40 mg b.i.d.) or placebo for 24 weeks. Methazolamide was taken as 1×30 mg capsule and 1×10 mg capsule per dose at breakfast and dinner. Placebo (microcrystalline cellulose) was administered in identical presentation. […] Mean ALT levels over time are depicted in FIGS. 1(A) and 1(B).

db/db mice [1] = experiment: Fasting blood glucose in db/db mice, 9 days oral gavage; type: in vivo
Description: (§1) All reagents were purchased from Sigma-Aldrich (Australia). Dosing solutions of methazolamide were prepared fresh daily in sterile saline:PEG400 at 65:35 (v/v), protected from light and stored at room temperature. Male db/db mice (Animal Resource Centre, Australia) were housed with free access to water and food (standard rodent diet: Barastoc Rat & Mouse, Ridley Agriproducts, Australia). Room temperature was maintained at 21±2° C., humidity 40-70%, with a 12 h light/dark cycle. Mice were treated with methazolamide (50 mg/kg/day) or vehicle (n=4 per group) by single oral gavage doses each day for 9 days.
(§2) Daily blood samples were obtained from the tail tip of each mouse and glucose levels measured using a glucometer (AccuCheck II; Roche, Australia). At the end of the study, the animals were humanely killed and a portion of liver tissue (left lobe) was removed and fixed in 10% neutral-buffered formalin. The liver tissue was paraffin-embedded, sectioned (5 μm), mounted and stained with hematoxylin and eosin.

db/db mice [2] = experiment: Hepatic lipid content (modified Folch extraction) in db/db mice; type: in vivo
Description: as §1
A separate portion of the liver (right lobe) was used to measure hepatic lipid content. Lipid was extracted using a modified Folch protocol. The tissue was homogenised in 2:1 chloroform/methanol solution (10 ml), and filtered into a […] glass centrifuge tube. An additional 5 ml of 2:1 chloroform/methanol solution was added, followed by 2.5 ml of 0.9% NaCl. After thorough mixing, the extract was centrifuged for 5 min at 2,000 g at 10° C. After discarding the aqueous layer, the organic layer was dried under nitrogen, and total lipid content was assessed by weighing.

db/db mice [3] = experiment: Liver histology (hematoxylin and eosin) in db/db mice; type: in vivo; conditions: after 9 days, 50 mg/kg/day; 3 of the 4 vehicle-treated animals had a high degree of hepatic steatosis
Description: as §1, §2

[4] = Week 12, methazolamide 40 mg b.i.d., listed as All MTZ (Alone + Met)
[5] = methazolamide 40 mg b.i.d., listed as All MTZ (Alone + Met)
[6] = methazolamide 40 mg b.i.d., listed as MTZ Alone
[7] = baseline (Day 0), before treatment, type 2 diabetes patients, listed as MTZ Alone
[8] = listed as All MTZ (Alone + Met)

With CC(=O)/N=c1/sc(S(N)(=O)=O)nn1C [methazolamide] as the compound, how does the “ALT Week 12, Mean ± SD” value (type 2 diabetes patients; [4]) read?
The value was 20.9 ± 9.8 U/L.

And the “ALT Week 12, Median (range)” value (type 2 diabetes patients; [4])?
Its value is 19 (8-50) U/L.

And the “ALT Week 12, Mean ± SD” value (type 2 diabetes patients; Week 12, methazolamide 40 mg b.i.d., listed as MTZ Alone)?
Its value is 22.1 ± 10.1 U/L.

What about the “ALT Week 24, Mean ± SD” value (type 2 diabetes patients; [5]) of the same compound?
Its value is 21.3 ± 12.3 U/L.

And the “ALT Week 24, Median (range)” value (type 2 diabetes patients; [5])?
Its value is 20 (7-64) U/L.

What about the “ALT Week 24, Mean ± SD” value (type 2 diabetes patients; [6]) of the same compound?
The value was 22.0 ± 12.6 U/L.

What about the “ALT Week 24, Median (range)” value (type 2 diabetes patients; [6]) of the same compound?
The value was 17 (9-49) U/L.

And the “ALT Day 0, Median (range)” value (type 2 diabetes patients; baseline (Day 0), before treatment, type 2 diabetes patients, listed as All MTZ (Alone + Met))?
Its value is 27.5 (16-83) U/L.

And the “ALT Day 0, Mean ± SD” value (type 2 diabetes patients; [7])?
Its value is 33.1 ± 16.9 U/L.

What about the “ALT Day 0, Median (range)” value (type 2 diabetes patients; [7]) of the same compound?
Its value is 29 (16-83) U/L.

What about the “ΔALT Week 12, Mean ± SD” value (type 2 diabetes patients; [8]) of the same compound?
Its value is −10.9 ± 7.7.

What about the “ΔALT Week 12, Median (range)” value (type 2 diabetes patients; [8]) of the same compound?
The value was −9 (−40, −2).

And the “ΔALT Week 12, Mean ± SD” value (type 2 diabetes patients; listed as MTZ Alone)?
Its value is −10.4 ± 9.3.

And the “ΔALT Week 12, Median (range)” value (type 2 diabetes patients; listed as MTZ Alone)?
The value was −8.5 (−40, −4).

What about the “ΔALT Week 24, Mean ± SD” value (type 2 diabetes patients; [8]) of the same compound?
The value was −10.7 ± 8.2.

What about the “ΔALT Week 24, Median (range)” value (type 2 diabetes patients; [8]) of the same compound?
The value was −8.5 (−34, +4).

And the “ΔALT Week 24, Mean ± SD” value (type 2 diabetes patients; listed as MTZ Alone)?
The value was −11.0 ± 8.1.

And the “ΔALT Week 24, Median (range)” value (type 2 diabetes patients; listed as MTZ Alone)?
Its value is −8 (−34, −3).

And the “ΔALT Week 12, MTZ-Placebo” value (type 2 diabetes patients; Week 12, listed as All MTZ (Alone + Met))?
The value was −14.8*^§.

And the “ΔALT Week 12, MTZ-Placebo” value (type 2 diabetes patients; Week 12, listed as MTZ Alone)?
The value was −18.1.

What about the “ΔALT Week 24, MTZ-Placebo” value (type 2 diabetes patients; [8]) of the same compound?
The value was −9.3^†§.

What about the “ΔALT Week 24, MTZ-Placebo” value (type 2 diabetes patients; listed as MTZ Alone) of the same compound?
Its value is −8.0.

And the “time of treatment after which reduction in blood ALT levels was evident” value (type 2 diabetes patients; patients treated with methazolamide)?
The value was 1 week.

And the “time of treatment after which reduced ALT level reached a plateau” value (type 2 diabetes patients; plateau maintained for the remainder of the 24 week treatment period)?
The value was 2 weeks.

What about the “Fasting Blood Glucose, Day 0” value (db/db mice [1]; Day 0 (baseline), male db/db mice, n=4) of the same compound?
The value was 26.0 ± 1.2 mM.

And the “Fasting Blood Glucose, Day 9” value (db/db mice [1]; Day 9, 50 mg/kg/day oral gavage, p < 0.05 vs Day 0)?
The value was 13.7 ± 2.4 mM.

What about the “reduction of fasting blood glucose levels relative to vehicle treated-controls” value (db/db mice [1]; db/db mice, 50 mg/kg/day, 9 days) of the same compound?
The value was 47%.

What about the “Liver lipid content (% of liver weight), Day 9” value (db/db mice [2]; Day 9, 50 mg/kg/day oral gavage, p < 0.05 vs vehicle) of the same compound?
Its value is 7.4 ± 1.2%.

What about the “liver lipid content (w/w) lower compared to vehicle treated controls” value (db/db mice [2]; after 9 days of treatment, db/db mice) of the same compound?
The value was 48%.

And the “treated db/db mice that appeared to have greatly reduced hepatic steatosis (liver histology)” value (db/db mice [3])?
The value was 2 of the 4.
